According to ChEMBL document CHEMBL4052806, “Chemical constituents from the rare mushroom Calvatia nipponica inhibit the promotion of angiogenesis in HUVECs” (Bioorg Med Chem Lett, 2017):
Activity calls are given as the source filed them. No cut-off for these calls is given here.

Columns and labels:
HUVEC [1] = test: Cytotoxicity against HUVEC assessed as reduction in cell viability at 100 ug/ml after 24 hrs by MTT assay relative to control; format: cell-based; settings: human
HUVEC [2] = test: Cytotoxicity against HUVEC assessed as reduction in cell viability up to 12.5 ug/ml after 24 hrs by MTT assay; format: cell-based; settings: human
HUVEC [3] = test: Antiangiogenic activity in HUVEC assessed as inhibition of tube formation on matrigel after 24 hrs by Mayer's hematoxylin staining based light microscopy; format: functional, cell-based; settings: Homo sapiens
HUVEC [4] = test: Cytotoxicity against HUVEC assessed as reduction in cell viability after 24 hrs by MTT assay; format: cell-based; settings: human
HUVEC [5] = test: Antiangiogenic activity in HUVEC assessed as inhibition of tube formation on matrigel at 12.5 ug/ml after 24 hrs by Mayer's hematoxylin staining based light microscopy relative to control; format: functional; settings: Homo sapiens
HUVEC [6] = test: Down regulation of VEGF expression in HUVEC at 6.25 ug/ml after 24 hrs by Western blot analysis relative to control; format: functional, Homo sapiens
[7] = target: T1, MAP kinase p38 (Homo sapiens) (UniProt O15264+Q15759+Q16539+P53778); test: Inhibition of p38 phosphorylation in HUVEC at 12.5 ug/ml after 24 hrs by Western blot analysis relative to control
Homo sapiens [8] = species on record: Homo sapiens; test: Inhibition of ERK phosphorylation in HUVEC at 6.25 ug/ml after 24 hrs by Western blot analysis relative to control
[9] = target: T1, MAP kinase p38 (Homo sapiens); test: Inhibition of p38 phosphorylation in HUVEC at 6.25 ug/ml after 24 hrs by Western blot analysis relative to control
HUVEC [10] = test: Down regulation of VEGF expression in HUVEC at 12.5 ug/ml after 24 hrs by Western blot analysis relative to control; format: functional, Homo sapiens
Homo sapiens [11] = species on record: Homo sapiens; test: Inhibition of ERK phosphorylation in HUVEC at 12.5 ug/ml after 24 hrs by Western blot analysis relative to control

Compound | Activity (HUVEC [1]) | Activity (HUVEC [2]) | inhibition (HUVEC [3]) | Activity (HUVEC [4]) | inhibition at 12.5 µg/mL (HUVEC [5]) | fold change (FC) (HUVEC [6]) | fold change (FC) [7] | fold change (FC) (Homo sapiens [8]) | fold change (FC) [9] | fold change (FC) (HUVEC [10]) | fold change (FC) (Homo sapiens [11])
OCc1cc(O)cc(O)c1 | 25.15% | Non-Toxic | inactive | Dose-dependent effect | – | – | – | – | – | – | –
NC(=O)c1cccnc1 [NIACINAMIDE] | 6.07% | Non-Toxic | – | Dose-dependent effect | 11.3% | – | – | – | – | – | –
CN(C)c1ccccc1C(=O)O | 25.82% | Non-Toxic | inactive | Dose-dependent effect | – | – | – | – | – | – | –
O=C1NCc2c(O)cc(O)cc21 | 23.13% | Non-Toxic | – | Dose-dependent effect | 32.6% | 0.9 | 0.71 | 1.05 | 0.87 | 0.72 | 0.9
CNc1ccccc1C(=O)O | 24.55% | Non-Toxic | inactive | Dose-dependent effect | – | – | – | – | – | – | –
CC(=O)Nc1ccc(O)cc1 [ACETAMINOPHEN] | 25.93% | Non-Toxic | – | Dose-dependent effect | 10.5% | – | – | – | – | – | –
O=C1OCc2cc(O)cc(O)c21 | – | – | inactive | – | – | – | – | – | – | – | –
